The values that follow are results of earlier work, collected in patent publication US20240082136A1, “TOPICAL COMPOSITION” (LILIGER LTD., priority 2021, published 2024).

For data set [1], the system named is stratum corneum / dry skin. As to conditions: topical treatment.
Data set [2] concerns cutaneous vasodilation. The settings on record: in vivo.

Take `Cl.N=C(N)NCCC[C@H](N)C(=O)O` [arginine hydrochloride]: in data set [1], the “Clinical symptoms of dry skin” value was “improvement”, the Skin moisture entry was “increase” and the “Urea in the stratum corneum” value is “significantly increase”.
On to botulinum toxin A, for which the Cutaneous vasodilation entry in data set [2] is on record as “eliminates”.
